{
  "source": "patent US6642259B1",
  "about": "“Immune stimulating dietary supplement and method of use thereof” (Trustees of Tufts College, priority 1999, dated 2003)",
  "origin": "cited, not measured here",
  "key": {"T cell function": {"test_system": "T cell function", "settings": "supplementation of old mice"}, "T-cell mediated funtion": {"test_system": "T-cell mediated funtion", "settings": "supplementation of the elderly human"}},
  "data": [
    {"substance": "vitamin E", "values": [
      {"measurement": "T cell function", "setting": "T cell function", "result": "increased"},
      {"measurement": "immunological responses (e.g. T-cell mediated funtion)", "setting": "T-cell mediated funtion", "result": "improved"}
    ]}
  ]
}
